The record followed here is BindingDB's records for doi:10.1016/j.bmcl.2013.01.049 (Dongguk University-Seoul, 2013).

Molecules are shown by their SMILES.

The target of this test is T1, Receptor-type tyrosine-protein kinase FLT3 (Homo sapiens, UniProt P36888).
T1 sequence (P36888 whole entry): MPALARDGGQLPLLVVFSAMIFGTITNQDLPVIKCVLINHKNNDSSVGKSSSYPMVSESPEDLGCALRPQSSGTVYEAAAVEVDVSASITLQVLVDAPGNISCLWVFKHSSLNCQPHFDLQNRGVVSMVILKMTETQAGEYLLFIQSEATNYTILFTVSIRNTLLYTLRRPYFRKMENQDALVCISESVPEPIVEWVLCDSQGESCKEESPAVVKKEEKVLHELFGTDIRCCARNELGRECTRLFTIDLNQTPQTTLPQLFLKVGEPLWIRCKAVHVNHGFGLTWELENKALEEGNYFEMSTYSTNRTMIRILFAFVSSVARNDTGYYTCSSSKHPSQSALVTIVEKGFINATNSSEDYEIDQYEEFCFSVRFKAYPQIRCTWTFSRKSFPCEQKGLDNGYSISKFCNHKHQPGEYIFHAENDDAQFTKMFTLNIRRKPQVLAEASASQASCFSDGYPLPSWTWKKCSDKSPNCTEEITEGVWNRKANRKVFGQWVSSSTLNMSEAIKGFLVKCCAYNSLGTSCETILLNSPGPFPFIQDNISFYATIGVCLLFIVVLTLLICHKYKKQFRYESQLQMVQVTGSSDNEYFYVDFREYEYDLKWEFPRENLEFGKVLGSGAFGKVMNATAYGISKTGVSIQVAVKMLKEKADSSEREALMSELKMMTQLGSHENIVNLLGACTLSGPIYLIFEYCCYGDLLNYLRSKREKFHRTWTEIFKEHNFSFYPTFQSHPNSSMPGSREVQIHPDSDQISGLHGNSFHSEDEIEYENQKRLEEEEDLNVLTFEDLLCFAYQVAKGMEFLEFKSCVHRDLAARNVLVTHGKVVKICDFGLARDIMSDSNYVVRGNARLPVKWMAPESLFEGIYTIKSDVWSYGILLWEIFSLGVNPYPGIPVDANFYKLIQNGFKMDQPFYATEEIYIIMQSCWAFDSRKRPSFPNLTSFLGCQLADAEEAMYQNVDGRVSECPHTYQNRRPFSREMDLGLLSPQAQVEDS
The experiment in a line: Inhibition of recombinant FLT3 (unknown origin) by TR-FRET assay. Background: TR-FRET usually uses a lanthanide donor and a delayed reading to cut background.

As a reminder, the IC50 is the midpoint of a concentration-inhibition curve.

Regarding `O=c1cc(O)cc2oc(-c3ccc(O)c(O)c3)c(OC3O[C@H](CO)[C@@H](O)[C@H](O)[C@@H]3O)c(O)c1-2` (stereo partly drawn), the IC50 is > 10 µM. To `O=c1cc(O)cc2oc(-c3ccc(O)c(O)c3)c(O[C@@H]3O[C@H](CO)[C@H](O)[C@H](O)[C@H]3O)c(O)c1-2` [2-(3,4-Dihydroxy-phenyl)-5,7-dihydroxy-3-((2S,4R,5R)-3,4,5-trihydroxy-6-hydroxymethyl-tetrahydro-pyran-2-yloxy)-chromen-4-one] belongs > 10 µM; to `O=c1cc(O)cc2oc(-c3ccc(O)c(O)c3)c(O[C@@H]3O[C@H](CO)[C@@H](O)[C@H](O)[C@H]3O)c(O)c1-2` [Quercetin 3-O-beta-D-glucoside], > 10 µM.
